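In this assay, cells in 96-well plates receive the compound at five concentrations for 48 hours. Endpoints are linearly interpolated between the surrounding concentrations. TGI: total growth inhibition.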
Assays:
Experiment in all cases: DTP human tumour cell line panel, 48 h
RPMI-8226 leukemia = tested on: RPMI-8226 leukemia
M14 melanoma = tested on: M14 melanoma
SF-268 CNS = tested on: SF-268 CNS
MDA-MB-435 = tested on: MDA-MB-435
HOP-62 NSCLC = tested on: HOP-62 NSCLC
OVCAR-3 ovarian = tested on: OVCAR-3 ovarian
SN12C renal = tested on: SN12C renal
RXF 393 renal = tested on: RXF 393 renal
CCRF-CEM leukemia = tested on: CCRF-CEM leukemia
SW-620 colon = tested on: SW-620 colon
SNB-19 CNS = tested on: SNB-19 CNS
SNB-75 CNS = tested on: SNB-75 CNS
UO-31 renal = tested on: UO-31 renal
SR leukemia = tested on: SR leukemia
SK-MEL-28 melanoma = tested on: SK-MEL-28 melanoma
SK-OV-3 ovarian = tested on: SK-OV-3 ovarian
OVCAR-4 ovarian = tested on: OVCAR-4 ovarian
NCI/ADR-RES ovarian = tested on: NCI/ADR-RES ovarian
IGROV1 ovarian = tested on: IGROV1 ovarian
KM12 colon = tested on: KM12 colon
NCI-H460 lung = tested on: NCI-H460 lung
NCI-H522 lung = tested on: NCI-H522 lung
COLO 205 colon = tested on: COLO 205 colon
SF-295 CNS = tested on: SF-295 CNS
NCI-H23 lung = tested on: NCI-H23 lung
HCT-15 colon = tested on: HCT-15 colon
OVCAR-8 ovarian = tested on: OVCAR-8 ovarian
MDA-N = tested on: MDA-N
T-47D breast = tested on: T-47D breast
MCF7 breast = tested on: MCF7 breast
PC-3 prostate = tested on: PC-3 prostate
UACC-62 melanoma = tested on: UACC-62 melanoma
HS 578T breast = tested on: HS 578T breast
A549 NSCLC = tested on: A549 NSCLC
MDA-MB-231 breast = tested on: MDA-MB-231 breast
TK-10 renal = tested on: TK-10 renal
MOLT-4 leukemia = tested on: MOLT-4 leukemia
HCC-2998 colon = tested on: HCC-2998 colon
K-562 leukemia = tested on: K-562 leukemia
BT-549 breast = tested on: BT-549 breast
HL-60(TB) leukemia = tested on: HL-60(TB) leukemia
NCI-H226 lung = tested on: NCI-H226 lung
SF-539 CNS = tested on: SF-539 CNS
U251 CNS = tested on: U251 CNS
HCT-116 colon = tested on: HCT-116 colon
HT29 colon = tested on: HT29 colon
EKVX NSCLC = tested on: EKVX NSCLC
SK-MEL-5 melanoma = tested on: SK-MEL-5 melanoma
786-0 renal = tested on: 786-0 renal
ACHN renal = tested on: ACHN renal
DU-145 prostate = tested on: DU-145 prostate
UACC-257 melanoma = tested on: UACC-257 melanoma
A498 renal = tested on: A498 renal
HOP-92 NSCLC = tested on: HOP-92 NSCLC
CAKI-1 renal = tested on: CAKI-1 renal
LOX IMVI melanoma = tested on: LOX IMVI melanoma
MALME-3M melanoma = tested on: MALME-3M melanoma
OVCAR-5 ovarian = tested on: OVCAR-5 ovarian

SMILES: CCC1CCC2c3c([nH]c4ccccc34)C3C(=O)N(c4ccc(OC)cc4)C(=O)C3C2C1 (stereo not drawn)
- TGI (RPMI-8226 leukemia): > 100 µM
- TGI (M14 melanoma): > 100 µM
- TGI (SF-268 CNS): > 100 µM
- TGI (MDA-MB-435): > 100 µM
- TGI (HOP-62 NSCLC): > 100 µM
- TGI (OVCAR-3 ovarian): 41.9 µM
- TGI (SN12C renal): > 100 µM
- TGI (RXF 393 renal): > 100 µM
- TGI (CCRF-CEM leukemia): 26.7 µM
- TGI (SW-620 colon): 82.4 µM
- TGI (SNB-19 CNS): 74.9 µM
- TGI (SNB-75 CNS): 41.1 µM
- TGI (UO-31 renal): > 100 µM
- TGI (SR leukemia): 32.1 µM
- TGI (SK-MEL-28 melanoma): > 100 µM
- TGI (SK-OV-3 ovarian): > 100 µM
- TGI (OVCAR-4 ovarian): 36 µM
- TGI (NCI/ADR-RES ovarian): > 100 µM
- TGI (IGROV1 ovarian): > 100 µM
- TGI (KM12 colon): > 100 µM
- TGI (NCI-H460 lung): > 100 µM
- TGI (NCI-H522 lung): > 100 µM
- TGI (COLO 205 colon): > 100 µM
- TGI (SF-295 CNS): 68.1 µM
- TGI (NCI-H23 lung): > 100 µM
- TGI (HCT-15 colon): > 100 µM
- TGI (OVCAR-8 ovarian): > 100 µM
- TGI (MDA-N): > 100 µM
- TGI (T-47D breast): 55.8 µM
- TGI (MCF7 breast): > 100 µM
- TGI (PC-3 prostate): > 100 µM
- TGI (UACC-62 melanoma): > 100 µM
- TGI (HS 578T breast): 66.8 µM
- TGI (A549 NSCLC): 59.7 µM
- TGI (MDA-MB-231 breast): > 100 µM
- TGI (TK-10 renal): 85.8 µM
- TGI (MOLT-4 leukemia): 32.5 µM
- TGI (HCC-2998 colon): > 100 µM
- TGI (K-562 leukemia): 60.8 µM
- TGI (BT-549 breast): > 100 µM
- TGI (HL-60(TB) leukemia): 75 µM
- TGI (NCI-H226 lung): > 100 µM
- TGI (SF-539 CNS): > 100 µM
- TGI (U251 CNS): 36.2 µM
- TGI (HCT-116 colon): > 100 µM
- TGI (HT29 colon): > 100 µM
- TGI (EKVX NSCLC): > 100 µM
- TGI (SK-MEL-5 melanoma): > 100 µM
- TGI (786-0 renal): > 100 µM
- TGI (ACHN renal): > 100 µM
- TGI (DU-145 prostate): > 100 µM
- TGI (UACC-257 melanoma): > 100 µM

SMILES: C=Cc1cnc([N+](=O)[O-])n1C
- TGI (A498 renal): 98.7 µM
- TGI (RPMI-8226 leukemia): > 100 µM
- TGI (M14 melanoma): > 100 µM
- TGI (SF-268 CNS): > 100 µM
- TGI (MDA-MB-435): > 100 µM
- TGI (HOP-62 NSCLC): > 100 µM
- TGI (HOP-92 NSCLC): > 100 µM
- TGI (OVCAR-3 ovarian): > 100 µM
- TGI (CAKI-1 renal): > 100 µM
- TGI (SN12C renal): > 100 µM
- TGI (CCRF-CEM leukemia): > 100 µM
- TGI (SW-620 colon): > 100 µM
- TGI (SNB-19 CNS): > 100 µM
- TGI (UO-31 renal): > 100 µM
- TGI (SR leukemia): 60.5 µM
- TGI (SK-MEL-28 melanoma): > 100 µM
- TGI (SK-OV-3 ovarian): > 100 µM
- TGI (NCI/ADR-RES ovarian): > 100 µM
- TGI (LOX IMVI melanoma): > 100 µM
- TGI (KM12 colon): > 100 µM
- TGI (NCI-H460 lung): > 100 µM
- TGI (COLO 205 colon): > 100 µM
- TGI (SF-295 CNS): > 100 µM
- TGI (NCI-H23 lung): > 100 µM
- TGI (HCT-15 colon): > 100 µM
- TGI (OVCAR-8 ovarian): > 100 µM
- TGI (MDA-N): > 100 µM
- TGI (T-47D breast): > 100 µM
- TGI (MCF7 breast): > 100 µM
- TGI (PC-3 prostate): > 100 µM
- TGI (HS 578T breast): 99.9 µM
- TGI (A549 NSCLC): > 100 µM
- TGI (MDA-MB-231 breast): > 100 µM
- TGI (TK-10 renal): > 100 µM
- TGI (MOLT-4 leukemia): > 100 µM
- TGI (MALME-3M melanoma): > 100 µM
- TGI (HCC-2998 colon): > 100 µM
- TGI (OVCAR-5 ovarian): > 100 µM
- TGI (BT-549 breast): > 100 µM
- TGI (HL-60(TB) leukemia): > 100 µM
- TGI (NCI-H226 lung): > 100 µM
- TGI (SF-539 CNS): > 100 µM
- TGI (U251 CNS): > 100 µM
- TGI (HCT-116 colon): > 100 µM
- TGI (HT29 colon): > 100 µM
- TGI (EKVX NSCLC): > 100 µM
- TGI (SK-MEL-5 melanoma): > 100 µM
- TGI (786-0 renal): > 100 µM
- TGI (ACHN renal): > 100 µM
- TGI (DU-145 prostate): > 100 µM
- TGI (UACC-257 melanoma): > 100 µM

From PubChem BioAssay (NCI)
